Experimental data as given in EP0414931B1, “Hypotensive agent” (TANABE SEIYAKU CO., LTD., priority 1989, dated 1991).
Marks after values point to notes of the source that are not given here.

What was measured:
SHR [1] = test: Hypotensive activity in SHR by single administration of test compound (tail-cuff method); type: in vivo, rats; conditions: SHR about 40 weeks old, fasted overnight; for decrease of the systolic blood pressure: 200 mg/kg orally once, 2 hours after administration in comparison with before administration; for rate of change of the blood pressure: 200 mg/kg orally, single dose, 2 hours after administration against before administration
Protocol: The phenoxyacetic acid derivatives (I) and pharmaceutically acceptable salts thereof, which are the active ingredient for use in the preparation of the hypotensive agent have an excellent hypotensive activity.
A suspension of a test compound in water containing a small amount of Tween 80 was administered orally in a volume of 1 ml/100 g of rat's weight (a dose of the test compound: 200 mg/kg) to SHR (about 40 weeks old, 4 to 6 rats/group) fasted overnight. The blood pressure before and after administration of the test compound were measured noninvasively by the tail-cuff method, and estimated the rate of the change of the blood pressure 2 hours after administration of the test compound against the blood pressure before administration of the test compound. In both of test compound No. (1) and No. (2), the rate of change of the blood pressure was about -13 %.

[2] = test system: established DOCA-salt hypertensive rats; test: Antihypertensive activity in DOCA-salt rats in the established hypertension condition (tail-cuff method); type: in vivo
Protocol: (§1) A left kidney was taken out from male SD rats (6 weeks old, weight; about 200 g, 10 rats/group), and 1 week later, silicon resin containing 150 mg/kg of deoxycorticosterone acetic acid (DOCA) was embedded in subcutaneous tissue at the back of each rat under ether anesthesia. After operation, the rats were provided with water containing 1 % sodium chloride and 0.2 % potassium chloride as drinking water in order to produce DOCA-salt rats. From the next day after operation of embedding the silicon resin containing DOCA, a suspension of the test compound (I) in water containing a small amount of Tween 80 was administered orally in a volume of 10 ml/kg (a dose of the test compound: 50 mg/kg/day) once a day for 4 weeks in the test compound-administered group. On the other hand, the same amount of water containing a small amount of the Tween 80 was administered in the control group instead of the suspension of the test compound (1). The systolic blood pressure of rats in the both groups was measured once a week until the fourth week by the tail-cuff method.
(§2) A suspension of the test compound (1) in water containing a small amount of Tween 80 was administered orally in a volume of 10 ml/kg (a dose of the test compound: 100 mg/kg/day) once a day for 4 weeks to SHR (5 weeks old, weight; about 100 g, 10 rats/group) in the test compound-administered group. On the other hand, the same amount of water containing a small amount of Tween 80 was administered to the rats in control group instead of the suspension of the test compound (1). The systolic blood pressure of rats of the both groups was measured once a week until the fifth week by the tail-cuff method.
The DOCA-salt loaded rats being in the stable hypertensive condition were obtained by feeding the DOCA-salt loaded rats used in Experiment 2 with tap water instead of aqueous salt solution for 6 weeks. Using these established DOCA-salt hypertensive rats (8 rats/group), the same experiments were carried out as Experiment 3 except that the dose of the test compound (1) was 50 mg/kg/day, the period of administration was 3 weeks, and the systolic blood pressure was measured until the fourth week after administration.

DOCA-salt rats = test: Antihypertensive activity on progressive hypertension in DOCA-salt rats (tail-cuff method); type: in vivo, male SD rats; conditions: for Systolic blood pressure: 50 mg/kg/day orally once a day for 4 weeks
Protocol: as §1

SHR [3] = test: Antihypertensive activity in SHR, repeated administration (tail-cuff method); type: in vivo, rats; conditions: for Systolic blood pressure: SHR 5 weeks old
Protocol: as §2

established-SHR = test: Antihypertensive activity in SHR in the established hypertension condition (tail-cuff method); type: in vivo, rats; conditions: for Systolic blood pressure: 100 mg/kg/day orally once a day for 3 weeks, established-SHR 18 weeks old
Protocol: as §2
Using the SHR being in the established hypertension (established-SHR, 18 weeks old, weight; 300 to 375 g, 8 rats/group), the same procedures were carried out as Experiment 3 except that the period of administration of the test compound (1) was 3 weeks, and the systolic blood pressure was measured until the third week after administration.

SMILES: CCOCn1nccc1C(=O)c1ccc(OCC(=O)O)c(Cl)c1Cl [[2,3-dichloro-4-(1-ethoxymethyl-5-pyrazolylcarbonyl)phenoxy]acetic acid]
- decrease of the systolic blood pressure (SHR [1]): about 13%

SMILES: CCOCn1nccc1C(=O)c1ccc(OCC(=O)O)c(Cl)c1Cl [(2), [2,3-dichloro-4-(1-ethoxymethyl-5-pyrazolylcarbonyl)phenoxy]acetic acid]
- rate of change of the blood pressure (SHR [1]): about -13%

SMILES: CCn1nccc1C(=O)c1ccc(OCC(=O)O)c(Cl)c1Cl [[2,3-dichloro-4(1-ethyl-5-pyrazolylcarbonyl)phenoxy]acetic acid]
- decrease of the systolic blood pressure (SHR [1]): about 13%

SMILES: CCn1nccc1C(=O)c1ccc(OCC(=O)O)c(Cl)c1Cl [(1), [2,3-dichloro-4-(1-ethyl-5-pyrazolylcarbonyl)phenoxy]acetic acid]
- blood pressure in comparison with control group ([2]; 50 mg/kg/day orally for 3 weeks, result in words): decreased significantly from the second week after administration
- Systolic blood pressure ([2]; day 0, 50 mg/kg/day orally once a day for 3 weeks): 171.1 mmHg
- Systolic blood pressure ([2]; day 7, 50 mg/kg/day orally once a day for 3 weeks): 167.4 mmHg
- Systolic blood pressure ([2]; day 14, 50 mg/kg/day orally once a day for 3 weeks): 168.1* mmHg
- Systolic blood pressure ([2]; day 28 (one week after the 3-week dosing), 50 mg/kg/day orally): 170.7* mmHg
- rate of change of the blood pressure (SHR [1]): about -13%
- increase of blood pressure as compared with control group (DOCA-salt rats; 50 mg/kg/day orally for 4 weeks, result in words): inhibited significantly from the second week after administration
- Systolic blood pressure (DOCA-salt rats; day 0): 121.6 mmHg
- Systolic blood pressure (DOCA-salt rats; day 7): 140.3 mmHg
- Systolic blood pressure (DOCA-salt rats; day 14): 165.0* mmHg
- Systolic blood pressure (DOCA-salt rats; day 21): 182.0* mmHg
- Systolic blood pressure (DOCA-salt rats; day 28): 193.3* mmHg
- increase of blood pressure as compared with control group (SHR [3]; 100 mg/kg/day orally for 4 weeks, result in words): inhibited significantly from the first week after administration
- Systolic blood pressure (SHR [3]; day 0, 100 mg/kg/day orally once a day for 4 weeks): 131.2 mmHg
- Systolic blood pressure (SHR [3]; day 7, 100 mg/kg/day orally once a day for 4 weeks): 141.0** mmHg
- Systolic blood pressure (SHR [3]; day 14, 100 mg/kg/day orally once a day for 4 weeks): 161.9** mmHg
- Systolic blood pressure (SHR [3]; day 21, 100 mg/kg/day orally once a day for 4 weeks): 175.4** mmHg
- Systolic blood pressure (SHR [3]; day 28, 100 mg/kg/day orally once a day for 4 weeks): 185.2** mmHg
- Systolic blood pressure (SHR [3]; day 35 (one week after the 4-week dosing), 100 mg/kg/day orally): 198.4** mmHg
- blood pressure in comparison with control group (established-SHR; 100 mg/kg/day orally for 3 weeks, result in words): decreased significantly from the first week after administration
- Systolic blood pressure (established-SHR; day 0): 207.3 mmHg
- Systolic blood pressure (established-SHR; day 7): 189.6* mmHg
- Systolic blood pressure (established-SHR; day 14): 201.8* mmHg
- Systolic blood pressure (established-SHR; day 21): 198.6* mmHg
